The source made the active and inactive calls. No cut-off for these calls is given here.
Key:
[1] = target: T1, Protein cereblon/Androgen receptor (Homo sapiens, UniProt P10275+Q96SW2); test: PROTAC activity at CRBN/AR in human LNCaP cells assessed as induction of AR degradation at 20 nM by Western blot analysis; type: cell-based; settings: time 1-36 hrs
Target sequence in this assay (P10275 whole entry, looked up): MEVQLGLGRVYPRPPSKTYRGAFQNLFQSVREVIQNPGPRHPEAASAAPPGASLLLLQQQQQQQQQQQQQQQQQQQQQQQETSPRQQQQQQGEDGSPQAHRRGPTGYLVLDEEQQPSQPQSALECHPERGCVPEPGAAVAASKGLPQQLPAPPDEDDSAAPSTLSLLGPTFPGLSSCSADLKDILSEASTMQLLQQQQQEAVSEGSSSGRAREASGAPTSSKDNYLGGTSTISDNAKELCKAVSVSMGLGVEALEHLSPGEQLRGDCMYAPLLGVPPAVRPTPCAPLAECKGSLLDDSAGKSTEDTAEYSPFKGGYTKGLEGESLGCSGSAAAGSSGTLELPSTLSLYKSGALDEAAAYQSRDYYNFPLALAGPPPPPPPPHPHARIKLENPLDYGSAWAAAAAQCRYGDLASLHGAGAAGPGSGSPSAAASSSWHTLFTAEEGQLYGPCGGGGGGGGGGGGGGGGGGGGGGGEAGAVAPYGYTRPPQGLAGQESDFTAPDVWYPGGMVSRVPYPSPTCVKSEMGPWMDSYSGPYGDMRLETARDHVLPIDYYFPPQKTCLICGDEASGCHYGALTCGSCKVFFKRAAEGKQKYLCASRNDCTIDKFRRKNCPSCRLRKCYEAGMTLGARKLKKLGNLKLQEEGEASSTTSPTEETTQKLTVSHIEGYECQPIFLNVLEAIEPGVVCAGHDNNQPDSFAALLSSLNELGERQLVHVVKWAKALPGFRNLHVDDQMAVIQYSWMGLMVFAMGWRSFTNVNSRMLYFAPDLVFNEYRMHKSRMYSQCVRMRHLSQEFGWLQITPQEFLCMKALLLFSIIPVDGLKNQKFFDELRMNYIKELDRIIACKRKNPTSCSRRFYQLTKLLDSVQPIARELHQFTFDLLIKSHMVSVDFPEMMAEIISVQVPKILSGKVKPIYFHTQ
Target sequence in this assay (Q96SW2 whole entry, looked up): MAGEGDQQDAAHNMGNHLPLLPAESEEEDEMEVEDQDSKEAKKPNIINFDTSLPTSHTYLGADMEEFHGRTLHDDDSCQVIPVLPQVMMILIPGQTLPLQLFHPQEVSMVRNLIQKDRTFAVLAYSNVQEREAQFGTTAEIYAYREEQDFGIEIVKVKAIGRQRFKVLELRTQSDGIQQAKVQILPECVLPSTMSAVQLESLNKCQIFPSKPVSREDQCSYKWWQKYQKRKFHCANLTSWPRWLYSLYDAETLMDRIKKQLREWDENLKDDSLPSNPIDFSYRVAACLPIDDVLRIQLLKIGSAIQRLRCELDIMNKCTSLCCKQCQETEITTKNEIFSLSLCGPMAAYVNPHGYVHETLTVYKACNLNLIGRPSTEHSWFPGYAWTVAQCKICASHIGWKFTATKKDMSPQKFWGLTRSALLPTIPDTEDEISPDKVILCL

[2] = target: T1, Protein cereblon/Androgen receptor; test: PROTAC activity at CRBN/AR in human VCaP cells assessed as induction of AR degradation incubated for 24 hrs by Western blot analysis; type: cell-based
[3] = target: T1, Protein cereblon/Androgen receptor; test: PROTAC activity at CRBN/AR in human 22Rv1 cells assessed as induction of AR degradation at 0.01 uM incubated for 24 hrs by Western blot analysis relative to control; type: cell-based
Target sequence in this assay (P10275 whole entry, looked up): as the sequence (P10275 whole entry, looked up) above
Target sequence in this assay (Q96SW2 whole entry, looked up): as the sequence (Q96SW2 whole entry, looked up) above

[4] = system: Protein cereblon/Androgen receptor (Homo sapiens), P10275+Q96SW2 [UNDEFINED MUTATION]; test: PROTAC activity at CRBN/Androgen receptor splice variant 7 in human VCaP cells assessed as induction of AR-V7 degradation by measuring maximal efficacy incubated for 24 hrs by Western blot analysis relative to control; type: cell-based
Chain of Protein cereblon/Androgen receptor (Homo sapiens), P10275+Q96SW2 [UNDEFINED MUTATION] (P10275 whole entry, looked up, stated change not applied, canonical isoform): as the sequence (P10275 whole entry, looked up) above
Chain of Protein cereblon/Androgen receptor (Homo sapiens), P10275+Q96SW2 [UNDEFINED MUTATION] (Q96SW2 whole entry, looked up, stated change not applied, canonical isoform): as the sequence (Q96SW2 whole entry, looked up) above

[5] = system: Protein cereblon/Androgen receptor (Homo sapiens), P10275+Q96SW2 [UNDEFINED MUTATION]; test: Induction of AR-V7 degradation in human 22Rv1 cells transfected with CRBN siRNA at 30 nM incubated for 24 hrs by Western blot analysis; type: cell-based
[6] = Half-life in male ICR mouse at 2 mg/kg, iv by LC-MS/MS analysis; type: ADME, organism-based; settings: in vivo
[7] = target: T2, Protein cereblon/Eukaryotic peptide chain release factor GTP-binding subunit ERF3A (Homo sapiens, UniProt Q96SW2+P15170); test: Molecular glue activity at CRBN/GSPT1 in human LNCaP cells assessed as induction of GSPT1 degradation at 20 nM by Western blot analysis; type: cell-based; settings: time 1-36 hrs
Target sequence in this assay (P15170 whole entry, looked up): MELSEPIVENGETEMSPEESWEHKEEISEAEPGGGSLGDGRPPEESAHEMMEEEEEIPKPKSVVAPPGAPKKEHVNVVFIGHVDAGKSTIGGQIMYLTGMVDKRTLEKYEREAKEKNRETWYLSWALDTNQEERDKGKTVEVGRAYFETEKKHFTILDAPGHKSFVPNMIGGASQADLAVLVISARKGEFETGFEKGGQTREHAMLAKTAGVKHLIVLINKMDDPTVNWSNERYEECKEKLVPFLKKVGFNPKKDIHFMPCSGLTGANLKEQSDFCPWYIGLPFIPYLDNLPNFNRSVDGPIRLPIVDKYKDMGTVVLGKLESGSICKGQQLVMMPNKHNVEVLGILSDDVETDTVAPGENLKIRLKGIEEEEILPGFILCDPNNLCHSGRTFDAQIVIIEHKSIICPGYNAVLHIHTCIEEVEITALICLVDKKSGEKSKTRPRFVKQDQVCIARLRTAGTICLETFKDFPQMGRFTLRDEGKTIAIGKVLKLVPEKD
Target sequence in this assay (Q96SW2 whole entry, looked up): as the sequence (Q96SW2 whole entry, looked up) above

CWR22R [8] = test: Effect on GSPT1 mRNA expression in human 22Rv1 cells at 1 to 10 nM incubated for 24 hrs by RT-PCR analysis; type: functional, cell-based; settings: dose 1-10 nM
[9] = target: T2, Protein cereblon/Eukaryotic peptide chain release factor GTP-binding subunit ERF3A; test: Molecular glue activity at CRBN/GSPT1 in human LNCaP cells assessed as induction of GSPT1 degradation incubated for 24 hrs by Western blot analysis; type: cell-based
[10] = target: T1, Protein cereblon/Androgen receptor; test: PROTAC activity at CRBN/AR in human 22Rv1 cells assessed as induction of AR degradation at 20 uM preincubated with EPI-002 for 4 hrs followed by compound addition and measured after 36 hrs by Western blot analysis; type: cell-based
Target sequence in this assay (P10275 whole entry, looked up): as the sequence (P10275 whole entry, looked up) above
Target sequence in this assay (Q96SW2 whole entry, looked up): as the sequence (Q96SW2 whole entry, looked up) above

[11] = system: Protein cereblon/Androgen receptor (Homo sapiens), P10275+Q96SW2 [UNDEFINED MUTATION]; test: Binding affinity to CRBN/AR-V7 in human 22Rv1 cells assessed as ternary complex formation incubated for 6 hrs by co-immunoprecipitation based Western blot analysis; type: cell-based
[12] = target: T1, Protein cereblon/Androgen receptor; test: PROTAC activity at CRBN/AR in human 22Rv1 cells assessed as increase in androgen receptor polyubiquitination at 30 nM preincubated with compound for 12 hrs followed by MG132 addition and measured after 12 hrs by immunoprecipitation based Western blot analysis; type: cell-based; settings: time 24.0 hrs
Target sequence in this assay (P10275 whole entry, looked up): as the sequence (P10275 whole entry, looked up) above
Target sequence in this assay (Q96SW2 whole entry, looked up): as the sequence (Q96SW2 whole entry, looked up) above

[13] = target: T2, Protein cereblon/Eukaryotic peptide chain release factor GTP-binding subunit ERF3A; test: Molecular glue activity at CRBN/GSPT1 in human Enzalutamide-resistant VCaP cells assessed as induction of GSPT1 degradation at 1 to 300 nM by Western blot analysis; type: cell-based; settings: dose 1-300 nM
Target sequence in this assay (P15170 whole entry, looked up): as the sequence (P15170 whole entry, looked up) above
Target sequence in this assay (Q96SW2 whole entry, looked up): as the sequence (Q96SW2 whole entry, looked up) above

[14] = target: T1, Protein cereblon/Androgen receptor; test: PROTAC activity at CRBN/AR in human 22Rv1 cells assessed as decrease in PSA mRNA level at 1 to 3 nM incubated for 24 hrs by qRT-PCR analysis; type: cell-based; settings: dose 1-3 nM
Target sequence in this assay (P10275 whole entry, looked up): as the sequence (P10275 whole entry, looked up) above
Target sequence in this assay (Q96SW2 whole entry, looked up): as the sequence (Q96SW2 whole entry, looked up) above

[15] = target: T2, Protein cereblon/Eukaryotic peptide chain release factor GTP-binding subunit ERF3A; test: Molecular glue activity at CRBN/GSPT1 in human 22Rv1 cells assessed as induction of GSPT1 degradation at 20 uM preincubated with EPI-002 for 4 hrs followed by compound addition and measured after 36 hrs by Western blot analysis; type: cell-based
Target sequence in this assay (P15170 whole entry, looked up): as the sequence (P15170 whole entry, looked up) above
Target sequence in this assay (Q96SW2 whole entry, looked up): as the sequence (Q96SW2 whole entry, looked up) above

[16] = Cytotoxicity against human THLE-2 cells assessed as cell growth inhibition incubated for 72 hrs by Celltiter-lumi luminescent cell viability assay; type: toxicity, cell-based
[17] = target: T1, Protein cereblon/Androgen receptor; test: PROTAC activity at CRBN/AR in human 22Rv1 cells assessed as induction of AR degradation incubated for 24 hrs by Western blot analysis; type: cell-based
CWR22R [18] = test: Cell cycle arrest in human 22Rv1 cells assessed as accumulation of cells at G1 phase at 1 nM incubated for 24 hrs by flow cytometric analysis (reference value: 49.7 %); type: functional
[19] = system: Protein cereblon/Androgen receptor (Homo sapiens), P10275+Q96SW2 [UNDEFINED MUTATION]; test: PROTAC activity at CRBN/Androgen receptor splice variant 7 in human VCaP cells assessed as induction of AR-V7 degradation at 50 nM preincubated with MLN4924 followed by compound addition and measured after 12 hrs by Western blot analysis; type: cell-based
[20] = system: Protein cereblon/Androgen receptor (Homo sapiens), P10275+Q96SW2 [UNDEFINED MUTATION]; test: PROTAC activity at CRBN/Androgen receptor splice variant 7 in human VCaP cells assessed as induction of AR-V7 degradation at 0.1 uM incubated for 24 hrs by Western blot analysis relative to control; type: cell-based
[21] = system: Protein cereblon/Androgen receptor (Homo sapiens), P10275+Q96SW2 [UNDEFINED MUTATION]; test: PROTAC activity at CRBN/Androgen receptor splice variant 7 in human Enzalutamide-resistant VCaP cells assessed as induction of AR-V7 degradation at 1 to 300 nM by Western blot analysis; type: cell-based; settings: dose 1-300 nM
Androgen receptor = Androgen receptor (Homo sapiens, UniProt P10275, F877L); test: Inhibition of AR F876L mutant (unknown origin) transcriptional activity transfected in HEK293T cells co-transfected with PSA-luciferase reporter and pRL-TK assessed as reduction in PSA-luciferase activity incubated for 24 hrs by luminescence based microplate reader analysis; type: cell-based
Chain of Androgen receptor (P10275 whole entry F877L, canonical isoform): as the sequence (P10275 whole entry, looked up) above, with F877L counted along it

[22] = system: Protein cereblon/Androgen receptor (Homo sapiens), P10275+Q96SW2 [UNDEFINED MUTATION]; test: PROTAC activity at CRBN/Androgen receptor splice variant 7 in human VCaP cells assessed as induction of AR-V7 degradation at 50 nM preincubated with MG132 followed by compound addition and measured after 12 hrs by Western blot analysis; type: cell-based
[23] = Toxicity in male NOD SCID mouse model xenografted with human LNCaP cells assessed as body weight loss at 20 mg/kg, po administered daily for 26 days; type: organism-based; settings: in vivo, 624 h, time 26 day
[24] = target: T2, Protein cereblon/Eukaryotic peptide chain release factor GTP-binding subunit ERF3A; test: Molecular glue activity at CRBN/GSPT1 in human 22Rv1 cells assessed as induction of GSPT1 degradation incubated for 24 hrs by Western blot analysis; type: cell-based
[25] = system: Protein cereblon/Androgen receptor (Homo sapiens), P10275+Q96SW2 [UNDEFINED MUTATION]; test: PROTAC activity at CRBN/Androgen receptor splice variant 7 in human 22Rv1 cells assessed as induction of AR-V7 degradation by measuring maximal efficacy incubated for 24 hrs by Western blot analysis relative to control; type: cell-based
[26] = target: T1, Protein cereblon/Androgen receptor; test: (§1) PROTAC activity at CRBN/Androgen receptor splice variant 7 in human 22Rv1 cells assessed as induction of AR-V7 degradation incubated for 24 hrs by Western blot analysis; type: cell-based
Target sequence in this assay (P10275 whole entry, looked up, change not shown): as the sequence (P10275 whole entry, looked up) above
Target sequence in this assay (Q96SW2 whole entry, looked up, change not shown): as the sequence (Q96SW2 whole entry, looked up) above

[27] = system: Protein cereblon/Androgen receptor (Homo sapiens), P10275+Q96SW2 [UNDEFINED MUTATION]; test: as §1; type: cell-based
[28] = target: T2, Protein cereblon/Eukaryotic peptide chain release factor GTP-binding subunit ERF3A; test: Molecular glue activity at CRBN/GSPT1 in human 22Rv1 cells assessed as induction of GSPT1 degradation at 0.01 uM incubated for 24 hrs by Western blot analysis relative to control; type: cell-based
Target sequence in this assay (P15170 whole entry, looked up): as the sequence (P15170 whole entry, looked up) above
Target sequence in this assay (Q96SW2 whole entry, looked up): as the sequence (Q96SW2 whole entry, looked up) above

[29] = system: Protein cereblon/Androgen receptor (Homo sapiens), P10275+Q96SW2 [UNDEFINED MUTATION]; test: PROTAC activity at CRBN/Androgen receptor splice variant 7 in human VCaP cells assessed as induction of AR-V7 degradation at 20 nM by Western blot analysis; type: cell-based; settings: time 1-36 hrs
22Rv1 = test: Induction of GSPT1 degradation in human 22Rv1 cells transfected with CRBN siRNA at 30 nM incubated for 24 hrs by Western blot analysis; type: cell-based
LNCaP = test: Antiproliferative activity against AR-dependent human LNCaP cells assessed as cell growth inhibition incubated for 72 hrs by Celltiter-lumi luminescent cell viability assay; type: functional, cell-based

SMILES: COc1ccc(C(C)(C)c2cc(Cl)c(OCC3CCN(C(=O)CCCCCNc4ccc5c(c4)C(=O)N(C4CCC(=O)NC4=O)C5=O)CC3)c(C#N)c2)cc1 (stereo unspecified)
- Activity [1]: Time-dependent-effect
- Activity [2]: Dose-dependent-effect
- DC50 [2]: 2 nM
- Activity [3]: 75.2%
- Emax [4]: 77.9%
- Activity [5]: inactive
- half-life [6]: 54 min
- Activity [7]: Time-dependent-effect
- Activity (CWR22R [8]): Minimal_effect
- Activity [9]: Dose-dependent-effect
- DC50 [9]: 0.9 nM
- Activity [10]: inactive
- Activity [11]: Active
- Activity [12]: Active
- Activity [13]: Active
- Activity [14]: Active
- Activity [15]: Active
- IC50 at 72 h [16]: > 10000 nM
- Activity [17]: Dose-dependent-effect
- DC50 [17]: 3.7 nM
- Activity (CWR22R [18]): 50.3%
- Activity [19]: inactive
- Activity [20]: 81.3%
- Activity [21]: Active
- IC50 (Androgen receptor): 48.6 nM
- Activity [22]: inactive
- Activity [23]: Non-toxic
- Activity [24]: Dose-dependent-effect
- DC50 [24]: 1.2 nM
- Emax [25]: 92.6%
- DC50 [26]: 3 nM
- Activity [27]: Dose-dependent-effect
- Activity [28]: 93.9%
- Activity [29]: Time-dependent-effect
- Activity (22Rv1): inactive
- IC50 (LNCaP): 2.8 nM
